{"source": "patent US20240092835A1", "about": "“NOVEL PEPTIDES CAPABLE OF ALTERING NK CELL ACTIVITY” (Massachusetts Institute of Technology, priority 2022, published 2024)", "key": {"[1]": {"system": "NKG2A−/NKG2C+ NK cells", "experiment": "NK cell activation markers in NKG2A-/NKG2C+ NK cells incubated with peptide and K562 expressing HLA-E (activation)", "assay_type": "cell-based, human", "settings": "for effect on NKG2A−/NKG2C+ NK cell activation (in words): K562 expressing HLA-E, CD107a, IFNG, TNF, CCL3; for percentage of CCL3+ NK cells / percentage of CD107+ NK cells / percentage of IFNG+ NK cells / percentage of TNF+ NK cells: NKG2A-/NKG2C+ NK cells, K562/HLA-E", "outline": "(§1)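 Human myelogenous leukemia K562 cells displaying HLA-E carry the test peptides (human or HCMV origin) and are presented to NK cells; surface activation markers are scored by percent positive cells.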"}, "[2]": {"target": "T1, HLA-E (Homo sapiens, UniProt P13747)", "T1 construct": "expressed in transfected cells; host or cells: RMA-S/HLA-E cells (antigen processing-defective lymphoma cell line)", "T1 sequence (P13747 22-358)": "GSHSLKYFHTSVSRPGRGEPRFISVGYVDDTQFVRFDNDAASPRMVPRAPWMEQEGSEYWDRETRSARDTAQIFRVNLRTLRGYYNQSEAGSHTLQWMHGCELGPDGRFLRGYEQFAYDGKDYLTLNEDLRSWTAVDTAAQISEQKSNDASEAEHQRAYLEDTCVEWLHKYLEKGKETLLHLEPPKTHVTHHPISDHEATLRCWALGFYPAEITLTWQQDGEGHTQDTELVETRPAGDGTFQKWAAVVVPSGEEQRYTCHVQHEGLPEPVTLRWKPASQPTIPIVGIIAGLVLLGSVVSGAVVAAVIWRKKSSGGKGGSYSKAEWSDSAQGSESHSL", "T1 sequence (P61769 21-119 partner)": "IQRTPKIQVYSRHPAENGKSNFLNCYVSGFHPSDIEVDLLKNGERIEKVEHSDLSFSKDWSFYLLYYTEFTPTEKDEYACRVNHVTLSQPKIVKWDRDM", "experiment": "HLA-E surface stabilization assay with RMA-S/HLA-E cells", "assay_type": "cell-based", "settings": "30 μM peptide, 16 hours; for HLA-E surface expression stability (GeoMFI): anti-HLA-E antibody", "protocol": "HLA-E surface expression was assessed by measuring geometric mean fluorescence intensity (GeoMFI) in RMA-S cells following immunofluorescence staining with an anti-HLA-E antibody (Table 14). Increased GeoMFI was indicative of increased HLA-E surface expression stability following novel peptide exposures (FIG. 3)."}, "[3]": {"system": "NKG2A−/NKG2C− NK cells", "experiment": "NK cell activation markers in control NKG2A-/NKG2C- NK cells incubated with peptide and K562 expressing HLA-E", "assay_type": "cell-based, human", "outline": "as §1"}}, "note": "Entries after “also recorded” stand apart in the source; their conditions may differ. Where no end group is shown, it is not given here."}
{"sequence": "TGPWRSLWI [human3, TGPWRSLWI]", "values": [{"measurement": "effect on NKG2A−/NKG2C+ NK cell activation (in words)", "setting": "[1]; listed as SEQ ID NO. 2", "result": "activate"}, {"measurement": "effect on NKG2A−/NKG2C+ NK cell activation (in words)", "setting": "[1]; listed as h3", "result": "activated"}, {"measurement": "percentage of CCL3+ NK cells", "setting": "[1]; Trial 1", "result": 60.9, "unit": "%"}, {"measurement": "percentage of CD107+ NK cells", "setting": "[1]; Trial 1", "result": 50.7, "unit": "%"}, {"measurement": "percentage of IFNG+ NK cells", "setting": "[1]; Trial 1", "result": 27.8, "unit": "%"}, {"measurement": "percentage of TNF+ NK cells", "setting": "[1]; Trial 1", "result": 19.1, "unit": "%"}, {"measurement": "percentage of CCL3+ NK cells", "setting": "[1]; Trial 2", "result": 75.8, "unit": "%"}, {"measurement": "percentage of CD107+ NK cells", "setting": "[1]; Trial 2", "result": 63.4, "unit": "%"}, {"measurement": "percentage of IFNG+ NK cells", "setting": "[1]; Trial 2", "result": 36.4, "unit": "%"}, {"measurement": "percentage of TNF+ NK cells", "setting": "[1]; Trial 2", "result": 24.8, "unit": "%"}, {"measurement": "percentage of CCL3+ NK cells", "setting": "[1]; Trial 3", "result": 75.7, "unit": "%"}, {"measurement": "percentage of CD107+ NK cells", "setting": "[1]; Trial 3", "result": 73.9, "unit": "%"}, {"measurement": "percentage of IFNG+ NK cells", "setting": "[1]; Trial 3", "result": 55.4, "unit": "%"}, {"measurement": "percentage of TNF+ NK cells", "setting": "[1]; Trial 3", "result": 47.1, "unit": "%"}, {"measurement": "percentage of CCL3+ NK cells", "setting": "[1]; Trial 4", "result": 64.5, "unit": "%"}, {"measurement": "percentage of CD107+ NK cells", "setting": "[1]; Trial 4", "result": 62.3, "unit": "%"}, {"measurement": "percentage of IFNG+ NK cells", "setting": "[1]; Trial 4", "result": 46.9, "unit": "%"}, {"measurement": "percentage of TNF+ NK cells", "setting": "[1]; Trial 4", "result": 37.4, "unit": "%"}, {"measurement": "percentage of CCL3+ NK cells", "setting": "[1]; Trial 5", "result": 65.7, "unit": "%"}, {"measurement": "percentage of CD107+ NK cells", "setting": "[1]; Trial 5", "result": 61, "unit": "%"}, {"measurement": "percentage of IFNG+ NK cells", "setting": "[1]; Trial 5", "result": 43.5, "unit": "%"}, {"measurement": "percentage of TNF+ NK cells", "setting": "[1]; Trial 5", "result": 37.7, "unit": "%"}, {"measurement": "percentage of CCL3+ NK cells", "setting": "[1]; Trial 6", "result": 46, "unit": "%"}, {"measurement": "percentage of CD107+ NK cells", "setting": "[1]; Trial 6", "result": 39.5, "unit": "%"}, {"measurement": "percentage of IFNG+ NK cells", "setting": "[1]; Trial 6", "result": 23.3, "unit": "%"}, {"measurement": "percentage of TNF+ NK cells", "setting": "[1]; Trial 6", "result": 15.8, "unit": "%"}, {"measurement": "HLA-E surface expression stability (GeoMFI)", "setting": "[2]; Trial 1", "result": 510, "unit": "GeoMFI"}, {"measurement": "HLA-E surface expression stability (GeoMFI)", "setting": "[2]; Trial 2", "result": 428, "unit": "GeoMFI"}, {"measurement": "HLA-E surface expression stability (GeoMFI)", "setting": "[2]; Trial 3", "result": 421, "unit": "GeoMFI"}, {"measurement": "HLA-E surface expression stability (GeoMFI)", "setting": "[2]; Trial 4", "result": 596, "unit": "GeoMFI"}, {"measurement": "HLA-E surface expression stabilization strength (in words)", "setting": "[2]; listed as GTF3C5293-301", "result": "closest to the experimental negative control (DMSO); also recorded: lowest"}, {"measurement": "percentage CCL3+ NK cells", "setting": "[3]; Trial 1", "result": 38.1, "unit": "%"}, {"measurement": "percentage CD107+ NK cells", "setting": "[3]; Trial 1", "result": 28.9, "unit": "%"}, {"measurement": "percentage TNF+ NK cells", "setting": "[3]; Trial 1", "result": 4.31, "unit": "%"}, {"measurement": "percentage of IFNG+ NK cells", "setting": "[3]; Trial 1", "result": 17.2, "unit": "%"}, {"measurement": "percentage CCL3+ NK cells", "setting": "[3]; Trial 2", "result": 61, "unit": "%"}, {"measurement": "percentage CD107+ NK cells", "setting": "[3]; Trial 2", "result": 37.9, "unit": "%"}, {"measurement": "percentage TNF+ NK cells", "setting": "[3]; Trial 2", "result": 8.81, "unit": "%"}, {"measurement": "percentage of IFNG+ NK cells", "setting": "[3]; Trial 2", "result": 26.9, "unit": "%"}, {"measurement": "percentage CCL3+ NK cells", "setting": "[3]; Trial 3", "result": 55.4, "unit": "%"}, {"measurement": "percentage CD107+ NK cells", "setting": "[3]; Trial 3", "result": 50.4, "unit": "%"}, {"measurement": "percentage TNF+ NK cells", "setting": "[3]; Trial 3", "result": 20.8, "unit": "%"}, {"measurement": "percentage of IFNG+ NK cells", "setting": "[3]; Trial 3", "result": 44, "unit": "%"}, {"measurement": "percentage CCL3+ NK cells", "setting": "[3]; Trial 4", "result": 36.6, "unit": "%"}, {"measurement": "percentage CD107+ NK cells", "setting": "[3]; Trial 4", "result": 32.6, "unit": "%"}, {"measurement": "percentage TNF+ NK cells", "setting": "[3]; Trial 4", "result": 11.3, "unit": "%"}, {"measurement": "percentage of IFNG+ NK cells", "setting": "[3]; Trial 4", "result": 21.2, "unit": "%"}, {"measurement": "percentage CCL3+ NK cells", "setting": "[3]; Trial 5", "result": 31, "unit": "%"}, {"measurement": "percentage CD107+ NK cells", "setting": "[3]; Trial 5", "result": 26.2, "unit": "%"}, {"measurement": "percentage TNF+ NK cells", "setting": "[3]; Trial 5", "result": 8.06, "unit": "%"}, {"measurement": "percentage of IFNG+ NK cells", "setting": "[3]; Trial 5", "result": 19.1, "unit": "%"}]}
